Assay results: patent publication US12653191B2, “Active compound combinations” (Bayer Aktiengesellschaft, priority 2020, dated 2026)
“And” between values parts separate entries of the source, which are not always exact repeats. Identical values can stand only once. Like-named read-outs stand apart in the source and are kept apart here.

Key:
Colletotrichum coccodes = assay: in vitro-Test with fungal microorganisms, Method B (tables J1-J11); assay type: cell-based
Outline: (§1)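 Efficacy, relative to untreated control (0% = growth as in control, 100% = no growth), from photometric growth measurement at 600 nm after 3 to 7 days at 20° C., 85% relative humidity. Compound applied in methanol+emulsifier, solvent evaporated, then spore/mycelium-amended liquid medium added.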

Fusarium culmorum = assay: in vitro-Test with fungal microorganisms, Method B (tables G5-G15); assay type: cell-based
Outline: as §1

Parastagonospora nodorum = assay: in vitro-Test with fungal microorganisms, Method B (tables H5-H8); assay type: cell-based
Method: (§2) Example: In Vitro-Test with Fungal Microorganisms
(§3) Wells of 96-well microtiter plates are filled with 30 μl of a preparation of test compound or compound combination in methanol+emulsifier alkylaryl-polyglycol-ether. Thereafter, the solvent is evaporated in a hood. At the next step, 200 μl of liquid growth medium is given, that has been amended with an appropriate concentration of spores or mycelium suspension of the test fungus.
(§4) With the aid of a photometer, the extinction in all wells is measured at the wavelength of 600 nm.
(§5) The microtiter plates are incubated for 3 to 7 days at 20° C. and 85% relative humidity. After the incubation inhibition of growth is determined photometrically. Efficacy is calculated in relation to the untreated control, 0% efficacy means fungal growth as high as in untreated control while 100% efficacy means no fungal growth is measured.
(§6) The data in tables A1 to A12, B1 to B14, C1 to C10, D1 to D8, E1 to E8, F1 to F11, G1 to G4, H1 to H4 and I1 to I5 were collected according to Method A. The data in tables A13 to A22, B15 to B18, C11 to C20, E9 to E16, F12 to F15, G5 to G15, H5 to H8, I6 to I11 and J1 to J11 were collected according to Method B.

Botrytis cinerea [1] = assay: in vitro-Test with fungal microorganisms, Method B (tables B15-B18); assay type: cell-based
Outline: as §1

Cordana musae = assay: in vitro-Test with fungal microorganisms, Method B (tables E9-E16); assay type: cell-based; details: single active
Outline: as §1

Cercospora beticola [2] = assay: in vitro-Test with fungal microorganisms, Method B (tables C11-C20); assay type: cell-based
Outline: as §1

Alternaria alternata = assay: in vitro-Test with fungal microorganisms, Method B (tables A13-A22); assay type: cell-based
Outline: as §1

Diaporthe citri [3] = assay: in vitro-Test with fungal microorganisms, Method B (tables F12-F15); assay type: cell-based
Method: as §2, §3, §4, §5, §6

[4] = system: Ustilago segetum var. avenae; assay: in vitro-Test with fungal microorganisms, Method B (tables I6-I11); assay type: cell-based
Outline: as §1

[5] = system: Colletotrichum lindemuthianum; assay: in vitro-Test with fungal microorganisms, Method A (tables D1-D8); assay type: cell-based; details: Colletotrichum lindemuthianum, mixing partner alone, read-out: Efficacy %
Outline: (§7)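 Test compound in methanol plus alkylaryl-polyglycol-ether emulsifier was dried into wells, then liquid potato dextrose medium containing spores or mycelium of the fungus was added. Plates were incubated at 20° C and 85% relative humidity; growth read at 620 nm after 3-5 days, efficacy relative to untreated control.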

Diaporthe citri [6] = assay: in vitro-Test with fungal microorganisms, Method A (tables F1-F11); assay type: cell-based; details: Diaporthe citri, read-out: Efficacy
Outline: as §7

Alternaria alternate = assay: in vitro-Test with fungal microorganisms, Method A (tables A1-A12); assay type: cell-based, Alternaria alternata; details: Alternaria, applied alone, read-out: Efficacy %
Outline: as §7

Cercospora beticola [7] = assay: in vitro-Test with fungal microorganisms, Method A (tables C1-C10); assay type: cell-based; details: Cercospora beticola, read-out: Efficacy %
Outline: as §7

Botrytis cinerea [8] = assay: in vitro-Test with fungal microorganisms, Method A (tables B1-B14); assay type: cell-based; details: Botrytis cinerea, alone, read-out: Efficacy %
Outline: as §7

[9] = single active compound, 0.2 ppm

Cc1nn(C)c(F)c1C(=O)Nc1ccccc1C(C)CC(C)C (centres unmarked) [(2.017) penflufen, penflufen]
Efficacy % (Colletotrichum coccodes; single active compound at 1 ppm): 0%
Efficacy % (Colletotrichum coccodes; single active compound at 5 ppm): 27%
Efficacy (Fusarium culmorum; 0.04 ppm alone): 4%
Efficacy (Fusarium culmorum; [9]): 10% and 2%
Efficacy (Fusarium culmorum; single active compound, 1 ppm): 11%
Efficacy (Fusarium culmorum; single active compound, 5 ppm): 11% and 8%
Efficacy (Parastagonospora nodorum; 0.04 ppm): 0%
Efficacy (Parastagonospora nodorum; 0.2 ppm): 5%
Efficacy % (Botrytis cinerea [1]; 0.04 ppm alone): 0%
Efficacy % (Botrytis cinerea [1]; 5 ppm alone): 70%
Efficacy (Cordana musae; 0.04 ppm): 0%
Efficacy (Cordana musae; 0.2 ppm): 0%
Efficacy (Cordana musae; 1 ppm): 0%
Efficacy % (Cercospora beticola [2]; single compound, 1 ppm): 0%
Efficacy (Alternaria alternata; 0.2 ppm): 22%
Efficacy (Alternaria alternata; 5 ppm): 72%
Efficacy (Diaporthe citri [3]; Table F15, 0.04 ppm alone): 0%
Efficacy (Diaporthe citri [3]; Table F15, 0.2 ppm alone): 2%
Efficacy (Diaporthe citri [3]; Table F15, 1 ppm alone): 0%
Efficacy (Diaporthe citri [3]; Table F15, 5 ppm alone): 3%

Cc1cccc(-n2nnn(C)c2=O)c1COc1ccn(-c2ccc(Cl)cc2)n1 [(3.030) metyltetraprole, metyltetraprole]
Efficacy % (Colletotrichum coccodes; single active compound at 0.04 ppm): 0%
Efficacy % (Colletotrichum coccodes; single active compound at 0.2 ppm): 1%
Efficacy (Fusarium culmorum; 0.2 ppm alone): 13%
Efficacy (Fusarium culmorum; single active compound, 0.008 ppm): 7% and 0%
Efficacy (Fusarium culmorum; single active compound, 0.04 ppm): 8% and 0%
Efficacy (Fusarium culmorum; [9]): 6% and 5%
Efficacy (Fusarium culmorum; single active compound, 1 ppm): 8% and 2%
Efficacy (Parastagonospora nodorum; 0.04 ppm): 38%
Efficacy (Parastagonospora nodorum; 1 ppm): 84%
Efficacy % (Botrytis cinerea [1]; 0.008 ppm alone): 7%
Efficacy % (Botrytis cinerea [1]; 0.04 ppm alone): 11%
Efficacy % (Botrytis cinerea [1]; 0.2 ppm alone): 7%
Efficacy % (Botrytis cinerea [1]; 1 ppm alone): 33%
Efficacy (Cordana musae; 0.008 ppm): 0%
Efficacy (Cordana musae; 0.04 ppm): 0%
Efficacy (Cordana musae; 0.2 ppm): 19%
Efficacy (Cordana musae; 1 ppm): 70%
Efficacy % (Cercospora beticola [2]; single compound, 0.04 ppm): 100%
Efficacy % (Cercospora beticola [2]; single compound, 0.2 ppm): 100%
Efficacy (Alternaria alternata; 0.008 ppm): 0%
Efficacy (Alternaria alternata; 1 ppm): 87%
Efficacy (Diaporthe citri [3]; Table F14, 0.2 ppm alone): 86%
Efficacy % ([4]; 0.2 ppm): 0%

COCC(=O)N(c1c(C)cccc1C)[C@H](C)C(=O)OC [(12.004) metalaxyl-M, metalaxyl-M (mefenoxam)]
Efficacy (Fusarium culmorum; 0.8 ppm, alone): 0%
Efficacy (Fusarium culmorum; 4 ppm alone): 0%
Efficacy (Fusarium culmorum; single active compound, 100 ppm): 22% and 23%
Efficacy (Parastagonospora nodorum; 0.8 ppm): 12%
Efficacy (Parastagonospora nodorum; 4 ppm): 8%
Efficacy (Parastagonospora nodorum; 20 ppm): 3%
Efficacy % (Botrytis cinerea [1]; 0.8 ppm, alone): 5%
Efficacy % (Botrytis cinerea [1]; 4 ppm alone): 3%
Efficacy % (Botrytis cinerea [1]; 20 ppm alone): 4%
Efficacy % (Botrytis cinerea [1]; 100 ppm alone): 13%
Efficacy (Cordana musae; 0.8 ppm): 0%
Efficacy (Cordana musae; 4 ppm): 0% and 9%
Efficacy (Cordana musae; 20 ppm): 0% and 8%
Efficacy % (Cercospora beticola [2]; 4 ppm): 10%
Efficacy % (Cercospora beticola [2]; 20 ppm): 0%
Efficacy % (Cercospora beticola [2]; single compound, 20 ppm): 0%
Efficacy (Alternaria alternata; 4 ppm): 10%
Efficacy (Diaporthe citri [3]; Table F14, 0.8 ppm alone): 0%
Efficacy (Diaporthe citri [3]; Table F14, 4 ppm alone): 0%
Efficacy (Diaporthe citri [3]; Table F14, 20 ppm alone): 0%
Efficacy % ([4]; 0.8 ppm, listed as (12.004) metalaxyl-m): 11%
Efficacy % ([4]; 4 ppm): 8%
Efficacy % ([4]; 20 ppm): 12%

COc1cc(C)c(C(=O)c2c(OC)ccc(Br)c2C)c(OC)c1OC [(15.016) metrafenone, metrafenone]
inhibition of growth at 0.8 ppm ([5]; 0.8 ppm): 10%
inhibition of growth at 4 ppm ([5]; 4.0 ppm): 12%
inhibition of growth at 20 ppm ([5]; 20.0 ppm): 21%
inhibition of growth at 0.8 ppm (Diaporthe citri [6]; Table F11, 0.8 ppm alone): 0%
inhibition of growth at 4 ppm (Diaporthe citri [6]; Table F11, 4.0 ppm alone): 0%
inhibition of growth at 20 ppm (Diaporthe citri [6]; Table F11, 20.0 ppm alone): 0%
inhibition of growth at 0.8 ppm (Diaporthe citri [6]; applied alone, 0.8 ppm): 0%
inhibition of growth at 4 ppm (Diaporthe citri [6]; applied alone, 4.0 ppm): 10%
inhibition of growth at 20 ppm (Diaporthe citri [6]; applied alone, 20.0 ppm): 0%
inhibition of growth at 5 ppm (Colletotrichum coccodes; Colletotrichum coccodes, single active compound at 5 ppm, read-out: Efficacy %): 2%
inhibition of growth at 1 ppm (Fusarium culmorum; Fusarium culmorum, 1 ppm, alone, read-out: Efficacy): 4%
inhibition of growth at 0.04 ppm (Fusarium culmorum; Fusarium culmorum, single active compound, 0.04 ppm, read-out: Efficacy): 0%
inhibition of growth at 0.2 ppm (Fusarium culmorum; Fusarium culmorum, single active compound, 0.2 ppm, read-out: Efficacy): 0%
inhibition of growth at 1 ppm (Fusarium culmorum; Fusarium culmorum, single active compound, 1 ppm, read-out: Efficacy): 7%
inhibition of growth at 5 ppm (Fusarium culmorum; Fusarium culmorum, single active compound, 5 ppm, read-out: Efficacy): 13%
Efficacy (Fusarium culmorum; single active compound, 5 ppm): 13%
inhibition of growth at 0.04 ppm (Parastagonospora nodorum; Parastagonospora nodorum, 0.04 ppm, read-out: Efficacy): 0%
inhibition of growth at 0.2 ppm (Parastagonospora nodorum; Parastagonospora nodorum, 0.2 ppm, read-out: Efficacy): 0%
inhibition of growth at 1 ppm (Parastagonospora nodorum; Parastagonospora nodorum, 1 ppm, read-out: Efficacy): 0%
inhibition of growth at 5 ppm (Parastagonospora nodorum; Parastagonospora nodorum, 5 ppm, read-out: Efficacy): 32%
inhibition of growth at 0.8 ppm (Alternaria alternate; 0.8 ppm): 0%
inhibition of growth at 4 ppm (Alternaria alternate; 4 ppm): 0%
inhibition of growth at 20 ppm (Alternaria alternate; 20 ppm): 11%
inhibition of growth at 0.04 ppm (Cordana musae; Neocordana musae, 0.04 ppm, read-out: Efficacy): 0%
inhibition of growth at 0.2 ppm (Cordana musae; Neocordana musae, 0.2 ppm, read-out: Efficacy): 0%
inhibition of growth at 1 ppm (Cordana musae; Neocordana musae, 1 ppm, read-out: Efficacy): 0%
inhibition of growth at 5 ppm (Cordana musae; Neocordana musae, 5 ppm, read-out: Efficacy): 11%
inhibition of growth at 0.2 ppm (Cercospora beticola [2]; Cercospora beticola, 0.2 ppm, read-out: Efficacy %): 0%
inhibition of growth at 1 ppm (Cercospora beticola [2]; Cercospora beticola, 1 ppm, read-out: Efficacy %): 0%
inhibition of growth at 5 ppm (Cercospora beticola [2]; Cercospora beticola, read-out: Efficacy %): 10%
inhibition of growth at 0.2 ppm (Cercospora beticola [2]; Cercospora beticola, single compound, 0.2 ppm, read-out: Efficacy %): 0%
inhibition of growth at 5 ppm (Cercospora beticola [2]; Cercospora beticola, single compound, read-out: Efficacy %): 1%
Efficacy (Alternaria alternata; 0.2 ppm): 3%
inhibition of growth at 0.2 ppm (Alternaria alternata; Alternaria alternata, 0.2 ppm, read-out: Efficacy): 3%
inhibition of growth at 1 ppm (Alternaria alternata; Alternaria alternata, 1 ppm, read-out: Efficacy): 6%
inhibition of growth at 5 ppm (Alternaria alternata; Alternaria alternata, 5 ppm, read-out: Efficacy): 16%
inhibition of growth at 1 ppm (Alternaria alternata; Alternaria alternata, single compound, 1 ppm, read-out: Efficacy): 0%
inhibition of growth at 0.8 ppm (Cercospora beticola [7]; 0.8 ppm): 10%
inhibition of growth at 4 ppm (Cercospora beticola [7]; 4.0 ppm): 0%
inhibition of growth at 20 ppm (Cercospora beticola [7]; 20.0 ppm): 0%
Efficacy (Diaporthe citri [3]; Table F12, 1 ppm alone): 3%
Efficacy (Diaporthe citri [3]; Table F12, 5 ppm alone): 0%
Efficacy (Diaporthe citri [3]; Table F14, 0.04 ppm alone): 0%
Efficacy (Diaporthe citri [3]; Table F14, 0.2 ppm alone): 0%
Efficacy (Diaporthe citri [3]; Table F14, 1 ppm alone): 0%
Efficacy (Diaporthe citri [3]; Table F14, 5 ppm alone): 0%
inhibition of growth at 0.04 ppm ([4]; 0.04 ppm, read-out: Efficacy %): 4%
inhibition of growth at 0.2 ppm ([4]; 0.2 ppm, read-out: Efficacy %): 0%
inhibition of growth at 4 ppm (Botrytis cinerea [8]; 4.0 ppm): 0%
inhibition of growth at 20 ppm (Botrytis cinerea [8]; 20.0 ppm): 0%
